Source: PubChem BioAssay AID652140 (Sanford-Burnham Center for Chemical Genomics, 2013)
Active and inactive are the calls of the source.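 Rule for the calls: active = compounds whose IC50 against the worm SKN-1 reporter ratio signal is 5 µM or lower; inactive = the rest.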

Tested on: C. elegans VP596 gst-4::GFP/RFP ratio, acrylamide, 24 h
Test: analog inhibition of acrylamide-induced gst-4::GFP reporter, SAR follow-up, SKN-1 inhibitor project, whole organism, GFP/RFP fluorescence ratio, strain VP596 (AID 652140)

Structure (SMILES): CCOc1cc(CNCc2ccccc2)cc(Cl)c1OCc1ccc(F)cc1
- IC50: 17.4 µM (inactive)

Structure (SMILES): CCOc1cc(CNC2CCCC2)ccc1OCc1ccc(F)cc1
- IC50: 10.3 µM (inactive)

Structure (SMILES): CCOc1cc(CNC2CCCC2)cc(Cl)c1OCc1ccc(Cl)cc1
- IC50: 0.244 µM

Structure (SMILES): Fc1ccc(-c2csc(-c3ccncc3)n2)cc1
- IC50: 2.03 µM

Structure (SMILES): CCOc1cc(CNC2CCCCC2)cc(Cl)c1OCc1ccc(F)cc1
- IC50: 9.66 µM (inactive)

Structure (SMILES): COc1cc(CNC2CCCC2)cc(Cl)c1OCc1ccc(F)cc1
- IC50: 0.826 µM

Structure (SMILES): COc1ccc(-c2csc(-c3ccncc3)n2)cc1
- IC50: 18 µM (inactive)

Structure (SMILES): c1ccc(-c2csc(-c3cccnc3)n2)cc1
- IC50: 19.6 µM (inactive)

Structure (SMILES): CCOc1cc(CNC2CCCC2)cc(Cl)c1OCc1ccccc1F
- IC50: 0.767 µM

Structure (SMILES): c1ccc(-c2csc(-c3ccncc3)n2)cc1
- IC50: 2.58 µM

Structure (SMILES): CCOc1cc(CNC(C)C)cc(Cl)c1OCc1ccc(F)cc1
- IC50: 16.7 µM (inactive)

Structure (SMILES): CCOc1cc(CNC2CCCC2)cc(Cl)c1OCc1ccc(OC)cc1
- IC50: > 64 µM (inactive)

Structure (SMILES): CCOc1cc(C(=O)NC2CCCC2)cc(Cl)c1OCc1ccc(F)cc1
- IC50: > 64 µM (inactive)

Structure (SMILES): CCOc1cc(CNC2CC2)cc(Cl)c1OCc1ccc(F)cc1
- IC50: 1.96 µM

Structure (SMILES): Cc1ccc(-c2csc(-c3ccncc3)n2)cc1
- IC50: 17.7 µM (inactive)

Structure (SMILES): Clc1ccc(-c2csc(-c3ccncc3)n2)cc1
- IC50: 1.1 µM

Structure (SMILES): Fc1ccc(COc2ccc(CNC3CCCC3)cc2Cl)cc1
- IC50: 4.18 µM

Structure (SMILES): CCOc1cc(CNC2CCC2)cc(Cl)c1OCc1ccc(F)cc1
- IC50: 8.68 µM (inactive)

Structure (SMILES): Clc1ccc(-c2csc(-c3cccnc3)n2)cc1
- IC50: 1.51 µM

Structure (SMILES): CCOc1cc(CNC2CCCC2)cc(Cl)c1OCc1ccc(F)cc1
- IC50: 1.04 µM

Structure (SMILES): CCOc1cc(CNC2CCCC2)cc(Cl)c1OCc1ccccc1Cl
- IC50: 12 µM (inactive)

Structure (SMILES): CCOc1cc(CNc2ccccc2)cc(Cl)c1OCc1ccc(F)cc1
- IC50: > 64 µM (inactive)

Structure (SMILES): COc1ccc(-c2csc(-c3cccnc3)n2)cc1
- IC50: > 64 µM (inactive)

Structure (SMILES): Fc1ccc(-c2csc(-c3cccnc3)n2)cc1
- IC50: 6.09 µM (inactive)

Structure (SMILES): CCOc1cc(CNC2CCCC2)cc(Cl)c1OC
- IC50: > 64 µM (inactive)

Structure (SMILES): Cc1ccc(-c2csc(-c3cccnc3)n2)cc1
- IC50: 30 µM (inactive)

Structure (SMILES): CCOc1cc(CNC2CCCC2)cc(Cl)c1OCc1cccc(F)c1
- IC50: 7.17 µM (inactive)

Structure (SMILES): CCOc1cc(CNC2CCCC2)cc(Cl)c1OCc1ccc(C)cc1
- IC50: 25.8 µM (inactive)
